Results from patent US20050112573A1, “Method of detecting toxic substance” (priority 2001, published 2005).

Test system: yeast genes (level of expressed mRNA)
Assay: DNA chip analysis of expressed mRNA of yeast genes after 2 h culture with a toxic chemical substance
Type: cell-based, Saccharomyces cerevisiae S288C
Details: for The level of expressed mRNA in the presence of chemical substance/ (ratio to absence of chemical substance): stress protein genes, DNA chip
Method in brief: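 S. cerevisiae S288C grown at 25° C in YPD; toxicant added at log phase at growth-inhibitory, non-lethal levels for 2 h, untreated cells as control. Poly(A) mRNA reverse-transcribed with Cy3/Cy5-dUTP, hybridized to whole-genome chip at 65° C >12 h; value is fluorescence ratio versus untreated.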

C=CC=O [(14), acrolein]
The level of expressed mRNA in the presence of chemical substance/absence: YOR267C (gene YOR267C): 0.9
The level of expressed mRNA in the presence of chemical substance/absence: YOR325W (gene YOR325W): 1.3
level of expressed mRNA in the presence of chemical substance/in its absence (gene YOR336W): 1.1
level of expressed mRNA in the presence of chemical substance/in its absence (gene YOR344C): 0.6
level of expressed mRNA in the presence of chemical substance/in its absence (gene YOR347C): 0.9
The level of expressed mRNA in the presence of chemical substance/absence: YPL005W (gene YPL005W): 1.0
level of expressed mRNA in the presence of chemical substance/in its absence (gene YPL017C): 1.6
The level of expressed mRNA in the presence of chemical substance / the level in the absence of chemical substance, yeast gene YPL107W (gene YPL107W, DNA chip fluorescence ratio to control without chemical, 2 hours culture with chemical, growth-inhibiting non-lethal concentration): 1.7
The level of expressed mRNA in the presence of chemical substance / the level in the absence of chemical substance, yeast gene YPL138C (gene YPL138C, DNA chip fluorescence ratio to control without chemical, 2 hours culture with chemical, growth-inhibiting non-lethal concentration): 1.3
The level of expressed mRNA in the presence of chemical substance/absence: YPL150W (gene YPL150W): 1.0
The level of expressed mRNA in the presence of chemical substance/absence: YPL151C (gene YPL151C): 0.9
The level of expressed mRNA in the presence of chemical substance/absence: YPL152W (gene YPL152W): 1.2
The level of expressed mRNA in the presence of chemical substance/absence: YPL168W (gene YPL168W): 1.0
The level of expressed mRNA in the presence of chemical substance/absence: YPL180W (gene YPL180W): 1.0
The level of expressed mRNA in the presence of chemical substance/absence: YPL188W (gene YPL188W): 1.4
The level of expressed mRNA in the presence of chemical substance/absence: YPL221W (gene YPL221W): 0.8
The level of expressed mRNA in the presence of chemical substance/absence: YPL225W (gene YPL225W): 1.4
The level of expressed mRNA in the presence of chemical substance/absence: YPL249C (gene YPL249C): 1.0
The level of expressed mRNA in the presence of chemical substance/absence: YPL260W (gene YPL260W): 1.1
level of expressed mRNA in the presence of chemical substance/in its absence (gene YPL265W): 1.1
level of expressed mRNA in the presence of chemical substance/in its absence (gene YPR006C): 1.2
level of expressed mRNA in the presence of chemical substance/in its absence (gene YPR026W): 1.5
The level of expressed mRNA in the presence of chemical substance/absence: YPR049C (gene YPR049C): 1.4
The level of expressed mRNA in the presence of chemical substance/absence: YPR061C (gene YPR061C): 1.7
The level of expressed mRNA in the presence of chemical substance/absence: YPR093C (gene YPR093C): 1.1
The level of expressed mRNA in the presence of chemical substance/absence: YPR146C (gene YPR146C): 0.9
The level of expressed mRNA in the presence of chemical substance/absence: YPR148C (gene YPR148C): 1.1
The level of expressed mRNA in the presence of chemical substance/absence: YPR150W (gene YPR150W): 1.4
The level of expressed mRNA in the presence of chemical substance/absence: YPR158W (gene YPR158W): 1.1
The level of expressed mRNA in the presence of chemical substance/absence: YPR169W (gene YPR169W): 1.0
The level of expressed mRNA in the presence of chemical substance/absence: YPR172W (gene YPR172W): 1.6
The level of expressed mRNA in the presence of chemical substance/absence: YPR174C (gene YPR174C): 0.9
The level of expressed mRNA in the presence of chemical substance/The level of expressed mRNA in the absence of chemical substance (yeast gene YAR010C): 1.0
The level of expressed mRNA in the presence of chemical substance/The level of expressed mRNA in the absence of chemical substance (yeast gene YBL005W-A): 1.4
The level of expressed mRNA in the presence of chemical substance/ (ratio to absence), gene YBL038W (yeast gene YBL038W, mitochondria-located protein genes, 2 h culture with chemical): 2.3
The level of expressed mRNA in the presence of chemical substance/The level of expressed mRNA in the absence of chemical substance (yeast gene YBL041W): 2.0
The level of expressed mRNA in the presence of chemical substance/The level of expressed mRNA in the absence of chemical substance (yeast gene YBL043W): 1.9
The level of expressed mRNA in the presence of chemical substance/The level of expressed mRNA in the absence of chemical substance (yeast gene YBL078C): 3.6
The level of expressed mRNA in the presence of chemical substance/ (ratio to absence of chemical substance) (yeast gene YBL093C): 1.0
The level of expressed mRNA in the presence of chemical substance/ (in its absence), gene YBR036C (yeast gene YBR036C, ratio of DNA chip fluorescence intensity to that without chemical substance): 0.8
The level of expressed mRNA in the presence of chemical substance/ (ratio to absence of chemical substance) (yeast gene YBR044C): 0.9
The level of expressed mRNA in the presence of chemical substance/ (ratio to absence), gene YBR122C (yeast gene YBR122C, mitochondria-located protein genes, 2 h culture with chemical): 1.2
The level of expressed mRNA in the presence of chemical substance/The level of expressed mRNA in the absence of chemical substance (yeast gene YBR214W): 0.9
The level of expressed mRNA in the presence of chemical substance/ (ratio to absence), gene YBR251W (yeast gene YBR251W, mitochondria-located protein genes, 2 h culture with chemical): 1.6
The level of expressed mRNA in the presence of chemical substance/ (in its absence), gene YBR298C (yeast gene YBR298C, ratio of DNA chip fluorescence intensity to that without chemical substance): 0.9
The level of expressed mRNA in the presence of chemical substance/The level of expressed mRNA in the absence of chemical substance (yeast gene YCL020W): 1.7
The level of expressed mRNA in the presence of chemical substance/The level of expressed mRNA in the absence of chemical substance (yeast gene YCL027W): 1.2
The level of expressed mRNA in the presence of chemical substance/The level of expressed mRNA in the absence of chemical substance (yeast gene YCR004C): 3.7
The level of expressed mRNA in the presence of chemical substance/ (ratio to absence), gene YCR046C (yeast gene YCR046C, mitochondria-located protein genes, 2 h culture with chemical): 1.3
The level of expressed mRNA in the presence of chemical substance/The level of expressed mRNA in the absence of chemical substance (yeast gene YCR071C): 1.7
The level of expressed mRNA in the presence of chemical substance/ (ratio to absence), gene YCR083W (yeast gene YCR083W, mitochondria-located protein genes, 2 h culture with chemical): 2.4
The level of expressed mRNA in the presence of chemical substance/ (ratio to absence of chemical substance) (yeast gene YCR083W): 2.4
The level of expressed mRNA in the presence of chemical substance/The level of expressed mRNA in the absence of chemical substance (yeast gene YCR088W): 0.9
The level of expressed mRNA in the presence of chemical substance/The level of expressed mRNA in the absence of chemical substance (yeast gene YDL008W): 2.2
The level of expressed mRNA in the presence of chemical substance/ in its absence, gene YDL067C (yeast gene YDL067C, energy system protein genes, 2 h culture with the chemical, ratio to control without chemical): 1.4
The level of expressed mRNA in the presence of chemical substance/ (ratio to absence), gene YDL067C (yeast gene YDL067C, mitochondria-located protein genes, 2 h culture with chemical): 1.4
The level of expressed mRNA in the presence of chemical substance/ in its absence, gene YDL078C (yeast gene YDL078C, energy system protein genes, 2 h culture with the chemical, ratio to control without chemical): 0.8
